Source: PubChem BioAssay AID256 (DTP/NCI, 2004)
Values joined by “and” are separate entries in the source; they are usually repeats but may differ in a detail not shown here. Identical values can stand only once. Inconclusive results and toxic doses are left out.

Tested on: CD2F1 mice, L1210 leukemia ip, survival T/C
Assay: NCI In Vivo Anticancer Drug Screen. Data for tumor model L1210 Leukemia (intraperitoneal) in CD2F1 (CDF1) mice
Conditions: higher = longer survival
In short: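 Transplantable tumor in mice; compound-treated vs vehicle-treated groups. Read-out = treated/control ratio of the measured endpoint.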

[1] = endpoint: mean survival time, dose: 100.0 mg/kg/injection, schedule: Q04DX003 (ip), vehicle: saline with Tween-80
[2] = endpoint: mean survival time, dose: 200.0 mg/kg/injection, schedule: Q04DX003 (ip), vehicle: saline with Tween-80
[3] = endpoint: mean survival time, dose: 400.0 mg/kg/injection, schedule: Q04DX003 (ip), vehicle: saline with Tween-80
[4] = endpoint: mean survival time, dose: 50.0 mg/kg/injection, schedule: Q01DX009 (ip), vehicle: saline with Tween-80
[5] = endpoint: mean survival time, dose: 100.0 mg/kg/injection, schedule: Q01DX009 (ip), vehicle: saline with Tween-80
[6] = endpoint: mean survival time, dose: 200.0 mg/kg/injection, schedule: Q01DX009 (ip), vehicle: saline with Tween-80
[7] = endpoint: mean survival time, dose: 400.0 mg/kg/injection, schedule: Q01DX009 (ip), vehicle: saline with Tween-80

In the case of `O=C1CN=C(c2ccccn2)c2cc(Br)ccc2N1`, the T/C (endpoint: mean survival time, dose: 100.0 mg/kg/injection, schedule: Q04DX003 (ip), vehicle: Klucel (hydroxypropylcellulose) (HPC)) is reported as 95 % of control, the T/C (endpoint: mean survival time, dose: 119.0 mg/kg/injection, schedule: Q01DX009 (ip), vehicle: Klucel (hydroxypropylcellulose) (HPC)) is reported as 95 % of control and the T/C (endpoint: mean survival time, dose: 187.0 mg/kg/injection, schedule: Q01DX009 (ip), vehicle: Klucel (hydroxypropylcellulose) (HPC)) is reported as 100 % of control. For the same compound, the T/C (endpoint: mean survival time, dose: 200.0 mg/kg/injection, schedule: Q04DX003 (ip), vehicle: Klucel (hydroxypropylcellulose) (HPC)) was 104 % of control, the T/C (endpoint: mean survival time, dose: 266.0 mg/kg/injection, schedule: Q01DX009 (ip), vehicle: Klucel (hydroxypropylcellulose) (HPC)) was 95 % of control and the T/C (endpoint: mean survival time, dose: 400.0 mg/kg/injection, schedule: Q01DX009 (ip), vehicle: Klucel (hydroxypropylcellulose) (HPC)) was 94 % of control. The T/C (endpoint: mean survival time, dose: 400.0 mg/kg/injection, schedule: Q04DX003 (ip), vehicle: Klucel (hydroxypropylcellulose) (HPC)) was 104 % of control and the T/C (endpoint: mean survival time, dose: 600.0 mg/kg/injection, schedule: Q01DX009 (ip), vehicle: Klucel (hydroxypropylcellulose) (HPC)) was 95 % of control.
`Brc1cccc2c1CCCC2` was tested, and the T/C [1] was 97 % of control, the T/C [2] was 95 % of control and the T/C [3] was 103 % of control.
In the case of `Cc1cc(C)c(C#[N+][O-])c(C)c1`, the T/C (endpoint: mean survival time, dose: 12.5 mg/kg/injection, schedule: Q01DX009 (ip), vehicle: saline with Tween-80) is reported as 97 % of control, the T/C (endpoint: mean survival time, dose: 25.0 mg/kg/injection, schedule: Q01DX009 (ip), vehicle: saline with Tween-80) is reported as 94 % of control and the T/C [4] is reported as 91 % of control.
For `Cc1nc(Cl)c2cnccn12`, the T/C (endpoint: mean survival time, dose: 12.5 mg/kg/injection, schedule: Q04DX003 (ip), vehicle: saline) was 96 % of control, the T/C (endpoint: mean survival time, dose: 25.0 mg/kg/injection, schedule: Q04DX003 (ip), vehicle: saline) was 100 % of control and the T/C (endpoint: mean survival time, dose: 50.0 mg/kg/injection, schedule: Q04DX003 (ip), vehicle: saline) was 104 % of control.
`COC(=O)C1c2cc3c(c(O)c2CCC1(C)O)C(=O)c1c(O)cc2c(c1C3=O)OC1OC2(C)C(O)C(N(C)C)C1O` (centres undefined) was tested, and the T/C (endpoint: mean survival time, dose: 100.0 mg/kg/injection, schedule: Q01DX001 (ip), vehicle: saline) was 103 % of control, the T/C (endpoint: mean survival time, dose: 200.0 mg/kg/injection, schedule: Q01DX001 (ip), vehicle: saline) was 104 % of control and the T/C (endpoint: mean survival time, dose: 400.0 mg/kg/injection, schedule: Q01DX001 (ip), vehicle: saline) was 104 % of control.
With `CC(=O)NCc1cccc([N+](=O)[O-])c1` the T/C (endpoint: mean survival time, dose: 25.0 mg/kg/injection, schedule: Q01DX005 (ip), vehicle: suspension in saline) was 97 % of control, the T/C (endpoint: mean survival time, dose: 50.0 mg/kg/injection, schedule: Q01DX005 (ip), vehicle: suspension in saline) was 106 % of control and the T/C (endpoint: mean survival time, dose: 100.0 mg/kg/injection, schedule: Q01DX005 (ip), vehicle: suspension in saline) was 105 % of control. The T/C (endpoint: mean survival time, dose: 200.0 mg/kg/injection, schedule: Q01DX005 (ip), vehicle: suspension in saline) was 95 % of control and the T/C (endpoint: mean survival time, dose: 400.0 mg/kg/injection, schedule: Q01DX005 (ip), vehicle: suspension in saline) was 95 % of control.
In the case of `COc1ccc(-c2c(O)c3c(OC)cc(OC)cc3oc2=O)cc1`, the T/C [4] is reported as 100 % of control, the T/C [5] is reported as 93 % of control and the T/C [6] is reported as 103 % of control.
With `Cc1ccc(NC(=O)c2ccccc2C(=O)O)c(C)c1` the T/C [5] was 109 % of control, the T/C [1] was 95 % of control and the T/C [6] was 96 % of control. For the same compound, the T/C [2] was 109 % of control, the T/C [7] was 115 % of control and the T/C [3] was 103 % of control.
For `Nc1ncnc2nc[nH]c12`, the T/C (endpoint: median survival time, dose: 70.0 mg/kg/injection, schedule: Q01DX009 (ip), vehicle: acid diluted with saline) was 98 % of control, the T/C (endpoint: median survival time, dose: 70.0 mg/kg/injection, schedule: Q01DX009 (ip), vehicle: other) was 109 % of control and the T/C (endpoint: median survival time, dose: 80.0 mg/kg/injection, schedule: Q01DX009 (ip), vehicle: acid diluted with saline) was 103 % of control. The T/C (endpoint: median survival time, dose: 80.0 mg/kg/injection, schedule: Q01DX009 (ip), vehicle: other) was 112 % of control, the T/C (endpoint: median survival time, dose: 90.0 mg/kg/injection, schedule: Q01DX009 (ip), vehicle: acid diluted with saline) was 101 % of control and the T/C (endpoint: median survival time, dose: 90.0 mg/kg/injection, schedule: Q01DX009 (ip), vehicle: other) was 106 % of control.
For `Nc1nc2c(c(=O)[nH]1)N(Cc1c[nH]c(=O)[nH]c1=O)C(CNc1ccc(C(=O)NC(CCC(=O)O)C(=O)O)cc1)CN2` (centres undefined), the T/C (endpoint: mean survival time, dose: 100.0 mg/kg/injection, schedule: Q01DX001 (ip), vehicle: saline with Tween-80) was 101 % of control, the T/C (endpoint: mean survival time, dose: 200.0 mg/kg/injection, schedule: Q01DX001 (ip), vehicle: saline with Tween-80) was 92 % of control and the T/C (endpoint: mean survival time, dose: 400.0 mg/kg/injection, schedule: Q01DX001 (ip), vehicle: saline with Tween-80) was 101 % of control.
For `O=C1CC2CC=CCC2C(=O)O1` (centres undefined), the T/C (endpoint: mean survival time, dose: 75.0 mg/kg/injection, schedule: Q01DX001 (ip), vehicle: saline) was 101 % of control and the T/C (endpoint: mean survival time, dose: 150.0 mg/kg/injection, schedule: Q01DX001 (ip), vehicle: saline) was 98 % of control.
In the case of `c1ccc(C[Se]Cc2ccccc2)cc1`, the T/C (endpoint: mean survival time, dose: 6.25 mg/kg/injection, schedule: Q01DX009 (ip), vehicle: other) is reported as 102 % of control, the T/C (endpoint: mean survival time, dose: 12.5 mg/kg/injection, schedule: Q01DX009 (ip), vehicle: other) is reported as 97 % of control and the T/C (endpoint: mean survival time, dose: 25.0 mg/kg/injection, schedule: Q01DX009 (ip), vehicle: other) is reported as 97 % of control. For the same compound, the T/C (endpoint: mean survival time, dose: 25.0 mg/kg/injection, schedule: Q04DX003 (ip), vehicle: other) was 101 % of control and the T/C (endpoint: mean survival time, dose: 50.0 mg/kg/injection, schedule: Q04DX003 (ip), vehicle: other) was 87 % of control.
`CCC1(O)C(=O)OCc2c1cc1n(c2=O)Cc2cc3ccc(C(=O)O)cc3nc2-1` (centres undefined) was tested, and the T/C (endpoint: median survival time, dose: 10.0 mg/kg/injection, schedule: Q04DX002 (ip), vehicle: saline with Tween-80) was 108 % of control, the T/C (endpoint: median survival time, dose: 10.0 mg/kg/injection, schedule: Q04DX002 (ip), vehicle: water) was 100 % of control and the T/C (endpoint: median survival time, dose: 20.0 mg/kg/injection, schedule: Q04DX002 (ip), vehicle: saline with Tween-80) was 101 % of control. For the same compound, the T/C (endpoint: median survival time, dose: 20.0 mg/kg/injection, schedule: Q04DX002 (ip), vehicle: water) was 109 % of control, the T/C (endpoint: median survival time, dose: 40.0 mg/kg/injection, schedule: Q04DX002 (ip), vehicle: saline with Tween-80) was 108 % of control and the T/C (endpoint: median survival time, dose: 40.0 mg/kg/injection, schedule: Q04DX002 (ip), vehicle: water) was 106 % of control. The T/C (endpoint: median survival time, dose: 80.0 mg/kg/injection, schedule: Q04DX002 (ip), vehicle: saline with Tween-80) was 108 % of control and the T/C (endpoint: median survival time, dose: 80.0 mg/kg/injection, schedule: Q04DX002 (ip), vehicle: water) was 106 % of control.
With `OC(C/C(=N\Nc1ccccc1)c1ccc(F)cc1)(C(F)(F)F)C(F)(F)F` the T/C [1] was 100 % of control, the T/C [2] was 98 % of control and the T/C [3] was 96 % of control.
`Nc1ccc(Cn2ccc3c4c(N)nc(N)nc4ccc32)cc1` was tested, and the T/C (endpoint: mean survival time, dose: 1.25 mg/kg/injection, schedule: Q01DX005 (ip), vehicle: saline with Tween-80) was 101 % of control, the T/C (endpoint: mean survival time, dose: 1.25 mg/kg/injection, schedule: Q01DX009 (ip), vehicle: saline with Tween-80) was 101 % of control and 102 % of control and 108 % of control and the T/C (endpoint: mean survival time, dose: 2.5 mg/kg/injection, schedule: Q01DX005 (ip), vehicle: saline with Tween-80) was 111 % of control. For the same compound, the T/C (endpoint: mean survival time, dose: 5.0 mg/kg/injection, schedule: Q01DX005 (ip), vehicle: saline with Tween-80) was 110 % of control, the T/C (endpoint: mean survival time, dose: 10.0 mg/kg/injection, schedule: Q01DX005 (ip), vehicle: saline with Tween-80) was 123 % of control and the T/C (endpoint: mean survival time, dose: 20.0 mg/kg/injection, schedule: Q01DX005 (ip), vehicle: saline with Tween-80) was 106 % of control. The T/C (endpoint: mean survival time, dose: 30.0 mg/kg/injection, schedule: Q01DX005 (ip), vehicle: saline with Tween-80) was 117 % of control, the T/C (endpoint: median survival time, dose: 1.25 mg/kg/injection, schedule: Q01DX009 (ip), vehicle: saline with Tween-80) was 103 % of control and 108 % of control and the T/C (endpoint: median survival time, dose: 2.5 mg/kg/injection, schedule: Q01DX009 (ip), vehicle: saline with Tween-80) was 118 % of control and 103 % of control. The T/C (endpoint: median survival time, dose: 5.0 mg/kg/injection, schedule: Q01DX009 (ip), vehicle: saline with Tween-80) was 124 % of control and 103 % of control, the T/C (endpoint: median survival time, dose: 10.0 mg/kg/injection, schedule: Q01DX009 (ip), vehicle: saline with Tween-80) was 113 % of control and the T/C (endpoint: median survival time, dose: 20.0 mg/kg/injection, schedule: Q01DX009 (ip), vehicle: saline with Tween-80) was 152 % of control.
With `C[C@]12CC[C@@H]3c4ccc(OC5CCCCO5)cc4CC[C@H]3[C@@H]1CC[C@@H]2O` (some centres undefined) the T/C (endpoint: mean survival time, dose: 600.0 mg/kg/injection, schedule: Q01DX Z (ip), vehicle: steriod suspending solution) was 108 % of control and the T/C (endpoint: mean survival time, dose: 800.0 mg/kg/injection, schedule: Q01DX Z (ip), vehicle: steriod suspending solution) was 101 % of control.
For `Cc1cc(C)cc(C(C)(C)C)c1`, the T/C [5] was 96 % of control and the T/C [6] was 102 % of control.
With `O=C1c2ccccc2C(=O)c2c(Sc3ccccc3)cccc21` the T/C [5] was 97 % of control, the T/C [6] was 93 % of control and the T/C [7] was 92 % of control.
With `O=NN(CCCl)C(=S)NC1CCCCC1` the T/C (endpoint: mean survival time, dose: 6.25 mg/kg/injection, schedule: Q01DX001 (ip), vehicle: other) was 104 % of control, the T/C (endpoint: mean survival time, dose: 12.5 mg/kg/injection, schedule: Q01DX001 (ip), vehicle: other) was 211 % of control and the T/C (endpoint: mean survival time, dose: 25.0 mg/kg/injection, schedule: Q01DX001 (ip), vehicle: other) was 246 % of control and 403 % of control. The T/C (endpoint: mean survival time, dose: 50.0 mg/kg/injection, schedule: Q01DX001 (ip), vehicle: other) was 295 % of control and 523 % of control.
